Source: patent publication US20180353613A1, “ANIONIC NANOPARTICLES FOR USE IN THE DELIVERY OF ANIONIC SMALL MOLECULE DRUGS” (B.G. NEGEV TECHNOLOGIES AND APPLICATIONS LTD, priority 2015, published 2018)
Converted amounts (≈) assume the structure as drawn.

Columns and labels:
NAR cells = assay: Cellular uptake of DOX by ImageStreamX imaging flow cytometry; assay type: cell-based, human; conditions: 5.8 μg/ml DOX
Description: (§1) Imaging experiments using an imaging flow cytometer (Amnis ImageStreamX, ISX) were performed to quantitatively evaluate the cellular uptake of DOX. Cells were seeded in 6-well culture plates at a cell density of 300,000 cells per well. Twenty-four hours post-seeding, the cells were incubated for 4 h with Free DOX or AlgS-Ca^2+-DOX anionic NPs (5.8 μg/ml DOX, 5 mM Ca^2+, 0.5 μg/ml AlgS), and then medium was replaced to fresh medium for 24 h. For ISX analysis, the cells were harvested (at 4 or 24 h after DOX NP addition) by trypsinization followed by centrifugation at 300 g for 5 min. The cell pellet was resuspended in FACS buffer (PBS containing 2% FBS, v/v) and cells were analyzed using ImageStreamX Mark II (Amnis, Seattle, Wash.). Cell acquisition and analysis were performed using IDEAS Application, version 6.0.

MDA-MB-231 cells [1] = assay: as above; assay type: cell-based, human; conditions: 5.8 μg/ml DOX
Description: as §1

MDA-MB-231 cells [2] = assay: In vivo antitumor activity in MDA-MB-231 tumor-bearing athymic nude mice; conditions: 4 mg/kg i.v., three weekly injections
Description: Female athymic nude mice (six weeks old, body weight=20-23 g) are inoculated to the right cranial trunk region with MDA-MB-231 cells/Matrigel™ 1:1 (v/v) suspension (3×10^6 cells/0.2 mL/animal). Treatment is commenced when tumor size is approximately 100-150 mm^3. Mice are treated intravenously (i.v.) with three weekly injections of 4 mg/kg ([…] 12 mg/kg) of DOX or DOX NPs in saline. NPs were prepared as described above using the following stock solutions: 2 mg/ml DOX, 1M CaCl2, 50 μg/ml AlgS. Prior to injection: DOX (0.5 mg/ml), or DOX NPs were diluted 1:1.5 in saline. Tumor progression is monitored twice a week by caliper measurement and calculated using the formula: Volume=(width)^2×length/2. Mice are observed daily, and body weight is detected as possible signs of toxicity. For histological analysis, mice are euthanized at the end of the treatments. Following excision, tumors are weighted, fixed in 4% formaldehyde, embedded in paraffin, and sectioned into 5-μm slices. Tissue samples are analyzed by H&E staining for histopathological changes, Ki67 staining for cell proliferation and TUNEL assay for apoptotic cell death.

[3] = test system: CT26 mouse colon carcinoma cells; assay: In vitro cytotoxicity of MTX complexes, PrestoBlue cell viability assay; assay type: cell-based; conditions: CT26, 48 h incubation
Description: CT26 mouse colon carcinoma cells or MDA-MB-231 human breast cancer cell line were seeded in 48-well plates at a density of 10,000 cells per well. After 24 h, medium was replaced with medium containing MTX nano-complexes or free MTX at various concentrations. After 48 h incubation, cell viability was assessed using PrestoBlue cell viability assay (Life Technologies, Carlsbad, Calif.). The assay is based on the live cell's ability to reduce resazurin (non-fluorescent) to resorufin (fluorescent). PrestoBlue working solution was prepared by dilution of PrestoBlue reagent 1:10 in cell culture medium. PrestoBlue working solution was added to the cells for 1 h at 37° C. and 5% CO2. Fluorescent intensity was measured using the Synergy Mx microplate reader (Biotek, Winooski, Vt.) at an excitation wavelength of 560 nm and emission wavelength of 590 nm. The percentage of cell viability was obtained after normalizing the data to untreated cells.
Statistical analysis was performed with GraphPad Prism version 6.05 for Windows (GraphPad Software, San Diego, Calif.). All variables are expressed as mean±SEM. […] Differences between experimental groups as a function of drug concentration were evaluated by 2-way ANOVA, with Sidak's multiple comparisons test. […]

[4] = test system: MDA-MB-231 human breast cancer cell line; assay: In vitro cytotoxicity of DOX NPs, PrestoBlue cell viability assay; assay type: cell-based; conditions: MDA-MB-231, 48 h
Description: MDA-MB-231 or DOX-resistant human ovary carcinoma cell line NAR cells were seeded in 48-well plates at a density of 10,000 cells per well. After 24 h, medium was replaced with medium containing DOX NPs or free DOX at various concentrations. After incubation for 4 h, the medium was replaced to drug-free culture medium. After 48 h incubation, cell viability was assessed using PrestoBlue cell viability assay, as described above.
Statistical analysis was performed with GraphPad Prism version 6.05 for Windows (GraphPad Software, San Diego, Calif.). All variables are expressed as mean±SEM. To test the hypothesis that changes in DLS and potential measurements varied over time among the experimental groups, a general linear 2-way repeated-measures (RM) ANOVA model was used. The model included the effects of treatment, time, and treatment-by-time interaction, with Sidak's multiple comparisons test. Viability data was fit using 4-parametric logistic regression curve, where applicable. IC50 values obtained from the intersection of regression line with 50% response. Differences between experimental groups as a function of drug concentration were evaluated by 2-way ANOVA, with Sidak's multiple comparisons test. P<0.05 was considered statistically significant.

SMILES: COc1cccc2c1C(=O)c1c(O)c3c(c(O)c1C2=O)C[C@@](O)(C(=O)CO)C[C@@H]3O[C@H]1C[C@H](N)[C@H](O)[C@H](C)O1.Cl [Free DOX, Doxorubicin-HCl]
- % positive cells (DOX-positive) (NAR cells; 4 h): 71%
- Mean Fluorescent intensity (NAR cells; 4 h): 40932
- % positive cells (DOX-positive) (NAR cells; 4 h, listed as free DOX): ~70%
- % positive cells (DOX-positive) (NAR cells; 24 h): 13%
- Mean Fluorescent intensity (NAR cells; 24 h): 15108
- % positive cells (DOX-positive) (MDA-MB-231 cells [1]; MDA-MB-231, 4 h): 90%
- Mean Fluorescent intensity (MDA-MB-231 cells [1]; MDA-MB-231, 4 h): 59061
- % positive cells (DOX-positive) (MDA-MB-231 cells [1]; MDA-MB-231, 24 h): 72%
- Mean Fluorescent intensity (MDA-MB-231 cells [1]; MDA-MB-231, 24 h): 41944
- tumor size compared to controls (MDA-MB-231 cells [2]): reduced

SMILES: CN(Cc1cnc2nc(N)nc(N)c2n1)c1ccc(C(=O)N[C@@H](CCC(=O)O)C(=O)O)cc1 [MTX, Methotrexate]
- IC50 [3]: 0.00696 µg/mL
- IC50 [4]: 1.27 µg/mL (≈ 2.79 µM)
